{"source": "patent US20110045065A1", "about": "“SUBSTANCE HAVING ANTIOXIDANT, GEROPROTECTIVE AND ANTI-ISCHEMIC ACTIVITY AND METHOD FOR THE PREPARATION THEREOF” (priority 2005, published 2011)", "key": {"[1]": {"system": "external segments of photoreceptor cells", "assay": "Ascorbate-induced peroxidation of external segments of photoreceptor cells", "format": "biochemical, pig", "details": "for Inhibition: 30 min of reacting; for Concentration of TBK-active products: 17 mM compound, 0.5 mM ascorbic acid", "from_the_text": "The external segments of photoreceptor cells are obtained from pig retinas according to standard procedure, using methods of differential centrifuging in a saccharose density gradient. […] Subsequently, the process was stopped by 15% trichloroacetic acid, and the concentration of TBK-active products has been determined. Samples being free of compound Ic were used as a control.\nIn these experiments a comparison of the speed of ascorbate-induced peroxidation of external segments of photoreceptor cells of pig eyes has been carried out, said comparison being determined with respect to the accumulation of TBK-active products in the presence of different compound I salts."}, "[2]": {"system": "acute myocardial ischemia (occlusion of the coronary artery of rats)", "assay": "Sizes of necrosis and ischemia zones in acute myocardial ischemia", "format": "in vivo, rat", "details": "rats, within 4 hours after occlusion of the coronary artery", "experimental": "The experiments are carried out with non-pedigree male rats having a weight of 250-300 g, which have been anesthetized with sodium ethaminale (40 mg/kg intraperitoneally). A myocardial infarction was modeled for animals, transferred to controlled breathing, by ligation of a descending branch of the left-hand coronary artery to a level of the lower edge of an auricula atrii.\nThe sizes of necrosis zones and ischemia zones have been determined within 4 hours after occlusion of the coronary artery by a differential indicator method, the principle of which is based on separate quantitative determination of Evans' blue (indicator of an ischemia zone) and red phormazane (indicator of an necrosis zone)."}, "[3]": {"assay": "Antiradical activity by chemiluminescence (rate constant k7)", "format": "physicochemical", "details": "speed constant of reaction with ethyl-benzene peroxide radicals", "experimental": "The efficiency of 3-hydroxypyridine derivatives as inhibitors of free radical reactions was determined by hemiluminescent method by means of measurement of speed constants of their reaction with ethyl-benzene k7 peroxide radicals.\nThe measurements of intensity of chemiluminescence (HL) have been carried out with an apparatus CNK-7, designed and made by IHF RAN USSR. A photomultiplier FAU-38 is used as an optical receiver. The fixed concentration of radicals during oxidation of […] (cumole) is controlled by an initiator being azo-bis-isobutyronitrile.\nIn order to increase HL emission the activator chelate Eu (europium tristenoyl triphtoroacetonate with 1,10-phenatroline) has been used that has allowed to conduct measurements at low speed values of radical initiation (W1=10^−8-10^−9 mol/I.s.) and, therefore, at small amounts of added sample. A weighed amount of samples studied was diluted in an suitable solvent (chlorobenzene or acetonitrile) and a small amount of the prepared solution (0.1-0.25 ml) was added to the reaction mixture (5-6 ml), arranged in a temperature-controlled reaction vessel of the HL-device. The change of emission intensity was recorded."}, "[4]": {"system": "lipofuscin induced cardiolipin photoperoxidation", "assay": "Inhibition of lipofuscin induced cardiolipin liposome photoperoxidation", "format": "biochemical, human", "details": "for Concentration of TBK-active products / Inhibition: 2 mM compound", "experimental": "Liposomes are prepared from methanolic solution of cardiolipin (initial concentration: 5 mg/ml) by evaporation of methanol and solubilization of cardiolipin in a phosphate buffer. A mixture comprising a suspension of liposomes and lipofuscin granules, isolated from tissue of a retinal pigmentary epithelium of a human eye, is subjected to irradiation with intensive blue light under constant stirring. Concentration of lipid peroxidation products (TBK-active products) is determined after 20, 40, 60 and 90 minutes. The experimental sample contained 2 mM of a solution of compound Ic, or 2 mM of a solution of mexydole."}}, "data": [{"smiles": "Cc1cc(C)c(O)c(C)n1.O=C(O)C(=O)O", "note": "[Compound Ia, 2,4,6-trimethyl-3-oxypyridine oxalate]", "values": [{"measurement": "Speed of accumulation of TBK-active products for 30 min of reacting", "setting": "[1]; compound 44 mM", "value": 0, "unit": "nmol/mg"}, {"measurement": "Inhibition", "setting": "[1]; compound 44 mM", "value": 100, "unit": "%"}]}, {"smiles": "Cc1cc(C)c(O)c(C)n1.O=C(O)CC(=O)O", "note": "[Compound Ib, 2,4,6-trimethyl-3-oxypyridine malonate]", "values": [{"measurement": "Speed of accumulation of TBK-active products for 30 min of reacting", "setting": "[1]; compound 44 mM", "value": 0.23, "unit": "nmol/mg"}, {"measurement": "Inhibition", "setting": "[1]; compound 44 mM", "value": 70, "unit": "%"}, {"measurement": "Concentration of TBK-active products", "setting": "[1]; response time 0 min", "value": 1, "unit": "relative units"}, {"measurement": "Concentration of TBK-active products", "setting": "[1]; response time 15 min", "value": 2.70, "unit": "relative units"}, {"measurement": "Concentration of TBK-active products", "setting": "[1]; response time 30 min", "value": 5.09, "unit": "relative units"}]}, {"smiles": "Cc1cc(C)c(O)c(C)n1.O=C(O)CC(O)C(=O)O", "note": "[Compound Id, 2,4,6-trimethyl-3-oxypyridine malate]", "values": [{"measurement": "Speed of accumulation of TBK-active products for 30 min of reacting", "setting": "[1]; compound 43 mM", "value": 0.1, "unit": "nmol/mg"}, {"measurement": "Inhibition", "setting": "[1]; compound 43 mM", "value": 87, "unit": "%"}]}, {"smiles": "CCc1ccc(O)c(C)n1.O=C(O)CCC(=O)O", "note": "[Mexydole, 2-methyl-6-ethyl-3-hydroxypyridine succinate, reference compound]", "values": [{"measurement": "Ratio of necrosis zone to ischemia zone", "setting": "[2]; 26 mg/kg", "value": "46 ± 5.6", "unit": "%"}, {"measurement": "Ratio of necrosis zone to total mass of the myocardium", "setting": "[2]; 26 mg/kg", "value": "8 ± 1.4", "unit": "%"}, {"measurement": "k7 × 10^−4", "setting": "[3]", "value": 4.5, "unit": "l/mol × sec"}, {"measurement": "Concentration of TBK-active products", "setting": "[4]; radiation time 0 min", "value": 1.83, "unit": "nmol/mg lipid"}, {"measurement": "Inhibition", "setting": "[4]; radiation time 0 min", "value": 0, "unit": "%"}, {"measurement": "Concentration of TBK-active products", "setting": "[4]; radiation time 20 min", "value": 2.84, "unit": "nmol/mg lipid"}, {"measurement": "Inhibition", "setting": "[4]; radiation time 20 min", "value": 5, "unit": "%"}, {"measurement": "Concentration of TBK-active products", "setting": "[4]; radiation time 40 min", "value": 3.5, "unit": "nmol/mg lipid"}, {"measurement": "Inhibition", "setting": "[4]; radiation time 40 min", "value": 0, "unit": "%"}, {"measurement": "Concentration of TBK-active products", "setting": "[4]; radiation time 60 min", "value": 4.5, "unit": "nmol/mg lipid"}, {"measurement": "Inhibition", "setting": "[4]; radiation time 60 min", "value": 0, "unit": "%"}, {"measurement": "Concentration of TBK-active products", "setting": "[4]; radiation time 90 min", "value": 5.0, "unit": "nmol/mg lipid"}, {"measurement": "Inhibition", "setting": "[4]; radiation time 90 min", "value": 7, "unit": "%"}, {"measurement": "Inhibiting / protective effect regarding phototoxic action of lipofuscin granules", "setting": "[4]; result in words", "value": "practically did not show an inhibiting effect"}]}, {"smiles": "O=C(NCCO[N+](=O)[O-])c1cccnc1", "note": "[Nicorandile]", "values": [{"measurement": "Ratio of necrosis zone to ischemia zone", "setting": "[2]; 12 mg/kg", "value": "42 ± 5.4", "unit": "%"}, {"measurement": "Ratio of necrosis zone to total mass of the myocardium", "setting": "[2]; 12 mg/kg", "value": "10 ± 1.6", "unit": "%"}]}]}
